Several values for one entry are separate records, joined by “and”; a condition that tells them apart may be missing. Equal entries are not always repeated. Activity calls are given as the source filed them.
What was measured:
[1] = molecular target: Cytochrome P450 2C9 (Homo sapiens, UniProt P11712)
[2] = tested on: H9c2; experiment: cells; format: functional, cell-based; settings: Rattus norvegicus, H9c2, Myocardium;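 further: confirmatory concentration-response retest of ultra-high-throughput screening hits for modulation of myocardial damage; cell death induced by hydrogen peroxide oxidative stress; compound pretreatment for 60 min then peroxide exposure for 2 h; potency is for protecting the cells against peroxide damage rather than for killing them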
[3] = molecular target: Cytochrome P450 2D6 (Homo sapiens, UniProt P10635);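 further: CYP2D6 member of a cytochrome P450 panel assay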
Chain of Cytochrome P450 2D6 (P10635 whole entry): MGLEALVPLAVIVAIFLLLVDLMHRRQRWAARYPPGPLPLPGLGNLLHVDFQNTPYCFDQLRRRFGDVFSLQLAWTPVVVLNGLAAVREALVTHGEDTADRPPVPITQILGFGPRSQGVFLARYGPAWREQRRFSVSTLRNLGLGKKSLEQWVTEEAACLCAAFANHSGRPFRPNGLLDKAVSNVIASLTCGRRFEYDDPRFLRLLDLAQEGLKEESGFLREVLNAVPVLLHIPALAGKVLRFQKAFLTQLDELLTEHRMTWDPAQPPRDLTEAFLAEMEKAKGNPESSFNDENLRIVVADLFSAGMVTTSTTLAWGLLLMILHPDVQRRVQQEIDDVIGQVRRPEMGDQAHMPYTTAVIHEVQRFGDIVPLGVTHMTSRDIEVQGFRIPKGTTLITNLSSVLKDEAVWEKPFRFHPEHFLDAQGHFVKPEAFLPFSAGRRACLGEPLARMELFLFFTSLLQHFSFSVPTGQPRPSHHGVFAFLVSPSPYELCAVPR

[4] = molecular target: Cytochrome P450 2C19 (Homo sapiens, UniProt P33261); experiment: Cytochrome panel assay with activity outcomes. Panel member name: p450-cyp2c19 Compounds with AC50 equal or less than 10 uM are considered active; format: functional; settings: read-out: AC50
Chain of Cytochrome P450 2C19 (P33261 whole entry): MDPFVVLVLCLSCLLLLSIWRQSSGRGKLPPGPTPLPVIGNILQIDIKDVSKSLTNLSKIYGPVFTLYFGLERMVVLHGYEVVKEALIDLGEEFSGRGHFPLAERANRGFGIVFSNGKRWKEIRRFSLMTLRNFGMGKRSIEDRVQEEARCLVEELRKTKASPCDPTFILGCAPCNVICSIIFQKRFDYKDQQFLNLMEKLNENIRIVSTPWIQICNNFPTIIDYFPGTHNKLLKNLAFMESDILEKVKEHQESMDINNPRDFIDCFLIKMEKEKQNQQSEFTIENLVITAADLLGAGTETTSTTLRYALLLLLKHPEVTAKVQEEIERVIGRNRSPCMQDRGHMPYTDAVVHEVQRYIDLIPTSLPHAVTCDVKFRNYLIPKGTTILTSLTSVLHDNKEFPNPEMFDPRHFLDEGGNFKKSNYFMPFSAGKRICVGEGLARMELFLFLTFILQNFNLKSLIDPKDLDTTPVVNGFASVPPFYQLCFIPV

[5] = molecular target: Cytochrome P450 3A4 (Homo sapiens, UniProt P08684);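 further: CYP3A4 tested as one member of a cytochrome P450 panel screen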
Chain of Cytochrome P450 3A4 (P08684 whole entry): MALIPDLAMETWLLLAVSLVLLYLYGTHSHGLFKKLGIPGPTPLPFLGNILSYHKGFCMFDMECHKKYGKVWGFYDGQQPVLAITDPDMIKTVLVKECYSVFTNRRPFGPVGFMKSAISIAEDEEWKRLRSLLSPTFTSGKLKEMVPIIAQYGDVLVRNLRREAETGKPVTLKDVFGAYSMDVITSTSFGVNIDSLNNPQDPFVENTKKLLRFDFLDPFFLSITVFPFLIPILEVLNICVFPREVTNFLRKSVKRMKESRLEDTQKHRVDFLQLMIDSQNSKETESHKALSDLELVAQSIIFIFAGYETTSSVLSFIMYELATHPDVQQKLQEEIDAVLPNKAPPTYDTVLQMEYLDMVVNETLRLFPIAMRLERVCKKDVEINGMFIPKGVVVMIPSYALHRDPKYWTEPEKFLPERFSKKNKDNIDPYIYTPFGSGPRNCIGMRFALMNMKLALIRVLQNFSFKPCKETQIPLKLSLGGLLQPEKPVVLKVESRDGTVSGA

[6] = molecular target: T1, Cytochrome P450 1A2 (Homo sapiens, UniProt P05177);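 further: PubChem cytochrome P450 panel assay, CYP1A2 panel member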
T1 sequence (P05177 whole entry): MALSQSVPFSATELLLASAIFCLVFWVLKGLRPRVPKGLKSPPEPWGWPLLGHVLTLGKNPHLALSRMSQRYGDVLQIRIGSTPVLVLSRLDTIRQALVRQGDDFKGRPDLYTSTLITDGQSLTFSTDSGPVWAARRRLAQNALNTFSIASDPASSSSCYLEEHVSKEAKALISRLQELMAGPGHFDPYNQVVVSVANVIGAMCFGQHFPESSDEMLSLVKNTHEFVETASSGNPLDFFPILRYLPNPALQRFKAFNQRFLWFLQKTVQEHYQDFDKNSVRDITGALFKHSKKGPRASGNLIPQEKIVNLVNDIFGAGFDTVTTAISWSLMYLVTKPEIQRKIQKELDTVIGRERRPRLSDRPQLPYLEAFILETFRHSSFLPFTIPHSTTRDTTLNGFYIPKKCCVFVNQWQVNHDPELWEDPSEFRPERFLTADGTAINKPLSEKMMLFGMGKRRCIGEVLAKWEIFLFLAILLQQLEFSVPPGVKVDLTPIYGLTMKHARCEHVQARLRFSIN

[7] = molecular target: T2, Heat shock factor protein 1 (Mus musculus, UniProt P38532); experiment: HSF1 potentiators in luciferase reporter cells, confirmation, cell-based, NIH3T3, luminescence, dose retest (AID 435004); format: functional;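 further: stress induced by proteasome inhibitor MG132 added 30 min after compound; luciferase reporter driven by HSF1 response element in NIH3T3 cells; actives raise luminescence as potentiators of the MG132 stress response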
T2 sequence (P38532 whole entry): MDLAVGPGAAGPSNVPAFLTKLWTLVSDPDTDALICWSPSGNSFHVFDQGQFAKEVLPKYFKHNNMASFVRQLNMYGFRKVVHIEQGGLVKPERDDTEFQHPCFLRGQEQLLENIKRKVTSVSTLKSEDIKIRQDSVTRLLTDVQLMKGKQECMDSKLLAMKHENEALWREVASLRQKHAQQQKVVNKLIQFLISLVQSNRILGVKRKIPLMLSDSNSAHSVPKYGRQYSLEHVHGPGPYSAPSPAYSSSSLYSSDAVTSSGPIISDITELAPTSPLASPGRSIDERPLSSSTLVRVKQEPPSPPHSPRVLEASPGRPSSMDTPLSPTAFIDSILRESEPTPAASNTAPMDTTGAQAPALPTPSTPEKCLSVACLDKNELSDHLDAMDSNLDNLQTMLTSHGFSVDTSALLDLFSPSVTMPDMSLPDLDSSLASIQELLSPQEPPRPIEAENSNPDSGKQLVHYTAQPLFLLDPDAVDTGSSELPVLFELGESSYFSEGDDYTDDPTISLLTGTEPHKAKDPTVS

[8] = molecular target: FAD-linked sulfhydryl oxidase ALR (Homo sapiens, UniProt P55789); experiment: inhibitors of human ALR sulfhydryl oxidase, dose response, biochemical, H2O2 detection, luminescence, cherry-pick (AID 493248)
Chain of FAD-linked sulfhydryl oxidase ALR (P55789 whole entry): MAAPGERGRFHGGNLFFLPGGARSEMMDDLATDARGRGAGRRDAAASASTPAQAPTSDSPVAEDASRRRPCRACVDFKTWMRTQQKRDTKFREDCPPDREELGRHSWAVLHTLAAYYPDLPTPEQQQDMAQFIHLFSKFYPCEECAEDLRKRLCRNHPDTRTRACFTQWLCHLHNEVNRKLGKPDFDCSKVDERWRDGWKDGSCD

[9] = molecular target: Luciferin 4-monooxygenase (Photinus pyralis, UniProt P08659); experiment: firefly luciferase enzyme inhibitors, dose response, biochemical, luminescence (AID 1891)
Chain of Luciferin 4-monooxygenase (P08659 whole entry): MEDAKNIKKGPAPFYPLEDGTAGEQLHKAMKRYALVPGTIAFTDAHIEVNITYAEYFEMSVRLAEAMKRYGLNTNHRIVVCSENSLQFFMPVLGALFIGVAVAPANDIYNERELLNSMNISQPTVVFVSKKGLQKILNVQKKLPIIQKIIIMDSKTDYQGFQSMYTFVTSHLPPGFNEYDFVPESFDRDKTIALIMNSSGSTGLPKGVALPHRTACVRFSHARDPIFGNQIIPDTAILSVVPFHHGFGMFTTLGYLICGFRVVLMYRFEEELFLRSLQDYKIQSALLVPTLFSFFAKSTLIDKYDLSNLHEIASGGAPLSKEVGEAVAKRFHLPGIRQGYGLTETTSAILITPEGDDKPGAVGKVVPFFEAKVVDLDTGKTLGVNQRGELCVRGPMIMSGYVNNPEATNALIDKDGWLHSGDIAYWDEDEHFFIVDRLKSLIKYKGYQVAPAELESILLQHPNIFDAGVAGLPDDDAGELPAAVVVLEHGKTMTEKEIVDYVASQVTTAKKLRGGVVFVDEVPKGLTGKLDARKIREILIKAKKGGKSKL

[10] = Luminescence Cell-Based Dose Confirmation HTS to Identify Inhibitors of Platelet Dense Granule Release. [Related pubchem assays: 1663 (Primary HTS), 1678 (Summary of Project)]; format: functional
[11] = molecular target: T3, Microphthalmia-associated transcription factor (Homo sapiens, UniProt O75030); experiment: TRPM1 promoter luciferase signal decrease, dose response, MITF inhibitor project, cell-based, SK-MEL-5, cherry-picked, set 3 (AID 493073); format: functional
T3 sequence (O75030 whole entry): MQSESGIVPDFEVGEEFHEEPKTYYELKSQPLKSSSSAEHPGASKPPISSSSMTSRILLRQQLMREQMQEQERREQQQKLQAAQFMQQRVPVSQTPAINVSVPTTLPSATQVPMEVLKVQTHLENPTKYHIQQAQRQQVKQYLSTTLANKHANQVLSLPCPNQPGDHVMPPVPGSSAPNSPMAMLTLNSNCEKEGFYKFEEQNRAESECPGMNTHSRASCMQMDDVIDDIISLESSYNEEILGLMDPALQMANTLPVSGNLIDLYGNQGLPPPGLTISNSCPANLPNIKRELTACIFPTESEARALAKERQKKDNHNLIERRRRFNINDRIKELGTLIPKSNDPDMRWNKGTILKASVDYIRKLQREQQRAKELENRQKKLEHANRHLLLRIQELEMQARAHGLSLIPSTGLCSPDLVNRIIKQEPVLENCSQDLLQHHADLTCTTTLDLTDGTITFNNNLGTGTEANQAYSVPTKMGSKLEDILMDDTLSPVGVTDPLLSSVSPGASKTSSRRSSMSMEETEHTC

Chain of Cytochrome P450 2C9 (P11712 whole entry): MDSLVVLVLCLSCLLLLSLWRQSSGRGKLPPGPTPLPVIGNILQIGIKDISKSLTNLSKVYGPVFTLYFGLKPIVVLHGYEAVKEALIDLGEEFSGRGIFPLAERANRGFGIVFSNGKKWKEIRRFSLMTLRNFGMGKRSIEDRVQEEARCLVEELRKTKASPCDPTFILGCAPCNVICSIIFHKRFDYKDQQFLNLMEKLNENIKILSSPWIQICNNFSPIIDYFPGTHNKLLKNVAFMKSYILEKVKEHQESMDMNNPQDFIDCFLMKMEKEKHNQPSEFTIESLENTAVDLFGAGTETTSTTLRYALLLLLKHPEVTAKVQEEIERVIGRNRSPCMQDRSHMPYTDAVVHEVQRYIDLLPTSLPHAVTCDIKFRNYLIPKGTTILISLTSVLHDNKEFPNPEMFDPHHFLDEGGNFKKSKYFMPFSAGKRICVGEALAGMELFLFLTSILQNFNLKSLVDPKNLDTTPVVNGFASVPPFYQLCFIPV

With `O=C(Nc1ccc(Cl)cc1)NC1CCCCC1` the AC50 [1] was 12.6 µM (inconclusive).

For `COc1cccc(Nc2nc3ccccc3n3cnnc23)c1`, the IC50 [2] was > 79 µM (inactive).

In the case of `COc1cc(CNn2nnnc2N)ccc1OCc1c(Cl)cccc1Cl`, the AC50 [1] is reported as 25.1 µM (inconclusive).

In the case of `COc1ccccc1CNc1cc(-c2ccc(C(=O)N(C)C)cc2)ncn1`, the AC50 [3] is reported as 12.6 µM (inconclusive).

In the case of `COCC(=O)N1CCC2(CC1)CN(C(=O)Nc1ccccc1)C2`, the AC50 [3] is reported as 39.8 µM (inconclusive).

For `CCC/C=C(\CCC)C(NP(=O)(c1ccccc1)c1ccccc1)c1ccc(C(F)(F)F)cc1` (stereo not given), the AC50 [4] was 39.8 µM (inconclusive) and the AC50 [1] was 12.6 µM (inconclusive).

In the case of `COc1ccc(CCN(C)CCc2ccc(OC)c(OC)c2)cc1OC`, the AC50 [5] is reported as 15.8 µM (inconclusive) and 10 µM (inconclusive) and the AC50 [3] is reported as 31.6 µM (inconclusive) and 12.6 µM (inconclusive).

With `O=C(c1ccncc1)N1CCC2(CCCN(c3ccccn3)C2)CC1` the AC50 [3] was 25.1 µM (inconclusive).

With `O=C(OCc1cc(=O)n2ccsc2n1)c1ccc(O)cc1O` the IC50 [2] was > 79 µM (inactive).

For `COc1cccc(Cn2c(=O)cnc3cncnc32)c1`, the AC50 [4] was 25.1 µM (inconclusive), the AC50 [5] was 20 µM (inconclusive) and the AC50 [3] was 25.1 µM (inconclusive).

With `CCCC[C@@H]1C[C@H]1C(NC(=O)c1ccccc1)c1ccc(Cl)cc1` (stereo not given in full) the AC50 [1] was 2.51 µM (inconclusive) and the AC50 [3] was 20 µM (inconclusive).

In the case of `Brc1ccc(CSc2ccc3nnc(-c4cccnc4)n3n2)cc1`, the IC50 [2] is reported as > 79 µM (inactive).

For `COc1cccc(Cn2c(=O)c(-c3ccc(F)cc3)nc3cnc(N4CCNCC4)nc32)c1`, the AC50 [6] was 25.1 µM (inconclusive), the AC50 [4] was 39.8 µM (inconclusive) and the AC50 [3] was 25.1 µM (inconclusive).

In the case of `CN(C)c1ncc2ncc(=O)n(Cc3ccc(F)cc3)c2n1`, the AC50 [3] is reported as 12.6 µM (inconclusive).

For `COc1ccc(Oc2ncc3nc(-c4ccc(OC)cc4)c(=O)n(Cc4cccs4)c3n2)cc1`, the AC50 [6] was 15.8 µM (inconclusive), the AC50 [1] was 3.16 µM (inconclusive) and the AC50 [5] was 3.16 µM (inconclusive).

In the case of `COC(=O)[C@@]1(Cc2ccc(OC)cc2)[C@H]2c3cc(C(=O)N(C)C)n(Cc4c(CO)ncc(C)c4O)c3C[C@H]2CN1C(=O)c1ccccc1`, the AC50 [4] is reported as 31.6 µM (inconclusive) and the AC50 [3] is reported as 20 µM (inconclusive).

In the case of `Fc1cccc(-c2nnn3c2nc(Cl)c2ccccc23)c1`, the EC50 [7] is reported as 13.6 µM (inconclusive).

In the case of `CC(=O)c1cc(C#N)c(Oc2ccc(F)cc2)nc1C`, the AC50 [4] is reported as 10 µM (inconclusive) and the AC50 [1] is reported as 3.98 µM (inconclusive).

In the case of `COc1ccc(S(=O)(=O)N(C)c2ccc(C(=O)NCc3ccccn3)cc2)cc1`, the EC50 [7] is reported as > 260 µM (inactive).

In the case of `CC(=O)NC1C(OCCOc2ccc(Cl)cc2Cl)OC(COC(C)=O)C(OC(C)=O)C1OC(C)=O` (stereo not given), the AC50 [4] is reported as 15.8 µM (inconclusive) and the AC50 [1] is reported as 4.47 µM (inconclusive).

In the case of `Cc1nc2nc(-c3ccc(F)cc3)cn2nc1C`, the EC50 [7] is reported as > 260 µM (inconclusive).

With `CC1CCCC(C)N1C(=O)COC(=O)c1nnc(O)c2ccccc12` (stereo not given) the IC50 [2] was > 79 µM (inactive).

For `CN(CCCNC(=O)C1CCC(=O)N1Cc1ccccc1Cl)c1ccccc1` (stereo not given), the AC50 [3] was 8.91 µM (inconclusive) and the AC50 [8] was 0.398 µM (active).

With `O=C(OCC(=O)N1CCCCCC1)c1nnc(O)c2ccccc12` the IC50 [2] was > 79 µM (inactive).

In the case of `COc1cccc(C(=O)C2=C(O)C(=O)N(c3ccccn3)C2c2ccc(OC)c(OC)c2)c1` (stereo not given), the AC50 [1] is reported as 15.8 µM (inconclusive) and the AC50 [5] is reported as 17.8 µM (inconclusive).

With `CCC(C)C(=O)Nc1ncc2c(n1)CC(c1cccs1)CC2=O` (stereo not given) the EC50 [7] was > 260 µM (inactive), the EC50 [9] was > 112 µM (not active) and the EC50 [10] was > 112 µM (not active).

In the case of `Cc1ccc(NC(=O)c2sc3ncn(CC(=O)N4CCOCC4)c(=O)c3c2C)c(Br)c1`, the EC50 [7] is reported as > 260 µM (inactive).

For `CCCCc1c(O)n(-c2ccc(OC)cc2)c(SCC(=O)N2CCOCC2)nc1=O`, the EC50 [7] was > 260 µM (inactive).

With `O=C1CN=C(Nc2ccccc2)N1Cc1cccs1` the AC50 [3] was 25.1 µM (inconclusive).

With `CNC(=O)NC(=S)NC(=O)c1ccc(OC)cc1` the AC50 [1] was 31.6 µM (inconclusive) and the AC50 [5] was 31.6 µM (inconclusive).

In the case of `O=C(Cc1c(O)c2ccccc2oc1=O)c1ccc(C(F)(F)F)cc1`, the EC50 [7] is reported as > 260 µM (inactive).

With `c1ccc(N2CCCC3(CCNCC3)C2)nc1` the AC50 [6] was 25.1 µM (inconclusive), the AC50 [4] was 20 µM (inconclusive) and the AC50 [1] was 39.8 µM (inconclusive). For the same molecule, the AC50 [5] was 15.8 µM (inconclusive).

With `N#CCC(CNc1ncc(C(F)(F)F)cc1Cl)OC(=O)c1ccc(Cl)cc1Cl` (stereo not given) the EC50 [7] was 42.6 µM (active).

With `COc1ccc(C(=O)COC(=O)Cn2[nH]c(=O)c3ccccc3c2=O)c(OC)c1` the IC50 [2] was 17.5 µM (active).

In the case of `O=C1NC2c3c(I)sc(I)c3C(=O)C2O1` (stereo not given), the AC50 [11] is reported as 15.5 µM (active).

With `COC(=O)c1cnc2c(c(C)nn2C)c1OC` the EC50 [7] was > 260 µM (inactive).

For `Fc1cccc(F)c1CN1CCN(c2ccc(Cl)cc2)CC1`, the EC50 [7] was > 260 µM (inactive).

For `COc1ccccc1C(=O)COC(=O)Cn1[nH]c(=O)c2ccccc2c1=O`, the IC50 [2] was 18.5 µM (active).

In the case of `O=C(N/N=C/c1cn(-c2ccccc2)nc1-c1cccnc1)c1ccccc1`, the IC50 [2] is reported as > 79 µM (inactive).

In the case of `CCn1c(O)c(/C=N/N=C2CCCC2)c2ccc(C3=NNC(=O)CC3)cc21`, the IC50 [2] is reported as > 79 µM (inactive) and the AC50 [5] is reported as 7.08 µM (inconclusive).

For `O=C(O)CC/C=C\C[C@@H]1CO[C@H](c2ccccc2Cl)O[C@@H]1c1ccccc1O`, the AC50 [6] was 39.8 µM (inconclusive), the AC50 [5] was 15.8 µM (inconclusive) and the AC50 [3] was 20 µM (inconclusive).

In the case of `COc1ccc(S(=O)(=O)N/N=c2\oc3c(OC)cccc3cc2S(=O)(=O)c2ccc(C)cc2)cc1OC`, the EC50 [7] is reported as 67.1 µM (active).

With `Cc1c(C(=O)NN2CCOCC2)nn(-c2ccc(Cl)cc2Cl)c1-c1ccc(I)cc1` the AC50 [6] was 31.6 µM (inconclusive) and the AC50 [3] was 12.6 µM (inconclusive).

In the case of `Cc1cc2[nH]c(=O)c3ccccc3n2n1`, the IC50 [2] is reported as > 79 µM (inactive).

With `C[N+](C)(C)CC[N+]1(C)Cc2c(Cl)c(Cl)c(Cl)c(Cl)c2C1` [CHLORISONDAMINE] the AC50 [4] was 5.01 µM (inconclusive) and the AC50 [3] was 15.8 µM (inconclusive).

— ChEMBL document CHEMBL1201862, “PubChem BioAssay data set” (2004)
